Results: patent publication US12637473B2, “MDM2 protein degraders” (THE REGENTS OF THE UNIVERSITY OF MICHIGAN, priority 2016, dated 2026)
Entries after “also recorded” stand apart in the source; their conditions may differ.

How the values were obtained:
Format in all cases: cell-based
RS4; 11 cells = assay: Cell growth inhibition by WST assay with Cpd. C co-treatment (CRBN competition); parameters: LogIC50: unit not given here; details: for HillSlope / IC50 / LogIC50: 4 days
Procedure: RS4; 11 cells were pre-incubated with different concentrations of Cpd. C to compete for the binding of phthalimide to CRBN, or DMSO, for 2 hours before adding Cpd. A, Cpd. No. 14, Cpd. No. 15, and Cpd. No. 22. The cells were then co-treated with 10, 20, or 30 μM Cpd. C and increasing concentrations of Cpd. A, Cpd. No. 14, Cpd. No. 15, and Cpd. No. 22 for 4 days, with a starting cell concentration of ˜15,000/well. Cell growth inhibition was determined by the WST assay. […] No. 14, Cpd. No. 15, and Cpd. No. 22 with co-treatment of Cpd. C. The structure of Cpd.

MDM2 [1] = target: T1, MDM2 (Homo sapiens, UniProt Q00987); assay: MDM2 degradation and p53 activation, western blotting of cell lysates; parameters: endogenous in cells
Procedure: MV-4-11 cells were treated with Cpd. A, Cpd. B, Cpd. No. 15, and Cpd. No. 22 for 2 hours, then harvested and lysed. The cell lysates were subjected to western blotting analysis. […] No. 15 and Cpd. No. 22 as compared to Cpd. A, indicating MDM2 degradation.

MDM2 [2] = target: T1, MDM2; assay: as above; parameters: endogenous in cells; host or cells: RS4;11; details: RS4
Procedure: RS4; 11 cells were treated with Cpd. A, Cpd. B, Cpd. No. 15, and Cpd. No. 22 for 2 hours, then harvested and lysed. The cell lysates were subjected to western blotting analysis. […] No. 15 and Cpd. No. 22 as compared to Cpd. A, indicating MDM2 degradation. The structure of Cpd.

MDM2 [3] = target: T1, MDM2; assay: MDM2 degradation with or without proteasome inhibitor MG-132, western blotting; parameters: endogenous in cells; host or cells: RS4;11; details: FIG. 6
Procedure: RS4; 11 cells were pre-incubated with the proteasome inhibitor MG-132 (20 μM) or without any pre-incubation for 2 hours. Next, the cells were treated with Cpd. A (0.3 μM), Cpd. No. 14 (0.03 μM), Cpd. No. 15 (0.01 μM), and Cpd. No. 22 (0.01 μM) for 2 hours, then harvested and lysed. The cell lysates were subject to western blotting analysis.

MDM2 [4] = target: T1, MDM2; assay: MDM2 degradation and p53 activation after pre-incubation with Cpd. C, Western blot; parameters: endogenous in cells; host or cells: RS4;11
Procedure: RS4; 11 cells were pre-incubated with 30 μM Cpd. C to compete for the binding of phthalimide to CRBN, or DMSO, for 2 hours before adding Cpd. A, Cpd. No. 14, Cpd. No. 15, and Cpd. No. 22. In the Western blot RS4; 11 cells were then co-treated with the indicated compounds at the indicated concentrations after pre-incubation. […] No. 14, Cpd. No. 15, and Cpd.

[5] = system: RS4; 11 cells with stable shRNA knockdown of p53; assay: Cell growth inhibition by WST assay, p53 knockdown cells; parameters: LogIC50: unit not given here; details: RS4;11 sh p53, 4 days
Procedure: (§1) RS4; 11 cells with stable shRNA knockdown of p53 or those transfected shRNA control vector were treated with Cpd. A, Cpd. B, Cpd. No. 14, Cpd. No. 21, Cpd. No. 15, and Cpd. No. 22 for 4 days, with a cell concentration of ˜15,000/well. Cell growth inhibition was determined by WST assay. See Table 7 (p53) and Table 8 (control). Significant increases in IC50 of the Compounds of the Disclosure in the p53 knockdown RS4; 11 cells were observed compared with that in the sh control cells. […] The p53 knockdown efficiency was determined by western blot for p53 protein levels with or without treatment of Cpd. A (1 μM) for 2 hours.

[6] = system: RS4; 11 cells transfected shRNA control vector; assay: Cell growth inhibition by WST assay, shRNA control cells; parameters: LogIC50: unit not given here; details: RS4;11 sh Control, 4 days
Procedure: as §1

MV4-11 cell line = assay: CellTiter-Glo Luminescent Cell Viability Assay, cell growth inhibition; details: Homo sapiens, 96 h, 4 days
Outline: (§2)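 Cells plated at 2,000/well with serially diluted compounds, incubated 4 days at 37° C, 5% CO2. Viability read by CellTiter-Glo luminescence after 10-20 min at room temperature; IC50 from dose-response fit.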

RS4; 11 cell line = assay: as above; details: Homo sapiens, 96 h, 4 days
Outline: as §2

[7] = system: p53 target genes: p21, PUMA and BAX; assay: Activation of p53 downstream target genes, quantitative real-time PCR; details: RS4, 11 cells, 10 nM
Procedure: RS4; 11 cells were treated with Cpd. A (0.3 μM), Cpd. No. 15 (10 nM), and Cpd. No. 22 (10 nM) for 3, 6, or 12 hours, and then harvested and washed. Cellular mRNA samples were extracted from the cells and then subjected to Reverse Transcription and quantitative real-time PCR for the analysis of the mRNA levels of three representative p53 target genes: p21, that induces cell cycle arrest, and PUMA and BAX that leads to apoptosis. […] A, Cpd. No. 15, and Cpd. No. 22.

[8] = RS4, 11 cells, pre-incubated with 30 μM Cpd. C for 2 hours

T1 sequence (Q00987 whole entry): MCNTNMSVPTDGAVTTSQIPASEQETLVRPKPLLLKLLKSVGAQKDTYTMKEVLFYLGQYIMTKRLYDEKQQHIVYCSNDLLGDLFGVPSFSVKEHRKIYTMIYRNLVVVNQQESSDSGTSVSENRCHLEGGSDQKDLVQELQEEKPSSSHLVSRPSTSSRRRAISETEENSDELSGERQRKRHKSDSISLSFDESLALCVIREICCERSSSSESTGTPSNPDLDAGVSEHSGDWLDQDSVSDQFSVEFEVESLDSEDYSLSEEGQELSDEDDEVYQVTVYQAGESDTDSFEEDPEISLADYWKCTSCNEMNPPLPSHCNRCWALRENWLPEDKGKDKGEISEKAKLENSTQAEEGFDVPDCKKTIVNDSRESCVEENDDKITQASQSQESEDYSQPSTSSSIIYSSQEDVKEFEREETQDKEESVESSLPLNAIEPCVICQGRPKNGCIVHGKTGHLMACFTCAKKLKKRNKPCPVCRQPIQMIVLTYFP

IC50 (RS4; 11 cells; + 10 uM Cpd. C): 44 nM | IC50 (RS4; 11 cells; + 20 uM Cpd. C): 68.2 nM | IC50 (RS4; 11 cells; + 30 uM Cpd. C): 62.4 nM | IC50 (RS4; 11 cells; Homo sapiens, 96 h, without Cpd. C): 4.87 nM | p53 activation (MDM2 [1]; MV-4-11 cell line): p53 activation | p53 activation (MDM2 [2]; 11 cell line): p53 activation | MDM2 degradation, dependence on proteasome (MDM2 [3]): proteasome-dependent | MDM2 degradation, dependence on cereblon (CRBN) (MDM2 [4]; FIG. 7): cereblon (CRBN)-dependent | MDM2 degradation, competition by Cpd. C (MDM2 [4]; [8]): significantly competed by Cpd. C | p53 activation, competition by Cpd. C (MDM2 [4]; [8]): significantly competed by Cpd. C | IC50 ([5]; Homo sapiens, 96 h): 110 nM | IC50 ([6]; Homo sapiens, 96 h): 7.47 nM | IC50 (MV4-11 cell line): 2 nM | IC50 (RS4; 11 cell line): 4.4 nM
Compound: O=C1CCC(N2C(=O)c3cccc(NCCOCCOCCOCCNC(=O)c4ccc(NC(=O)[C@@H]5NC6(CCCCC6)[C@@]6(C(=O)Nc7cc(Cl)ccc76)[C@H]5c5cccc(Cl)c5F)cc4)c3C2=O)C(=O)N1 (stereo partly drawn) [Cpd. No. 15, (3′R,4'S,5′R)-6″-chloro-4′-(3-chloro-2-fluorophenyl)-N-(4-((2-(2-(2-(2-((2-(2,6-dioxopiperidin-3-yl)-1,3-dioxoisoindolin-4-yl)amino)ethoxy)ethoxy)ethoxy)ethyl)carbamoyl)phenyl)-2″-oxodispiro[cyclohexane-1,2′-pyrrolidine-3′,3″-indoline]-5′-carboxamide]
HillSlope (RS4; 11 cells; + 10 uM Cpd. C): −1.654 | LogIC50 (RS4; 11 cells; + 10 uM Cpd. C): −1.356 | HillSlope (RS4; 11 cells; + 20 uM Cpd. C): −1.540 | LogIC50 (RS4; 11 cells; + 20 uM Cpd. C): −1.167 | HillSlope (RS4; 11 cells; + 30 uM Cpd. C): −1.416 | LogIC50 (RS4; 11 cells; + 30 uM Cpd. C): −1.205 | HillSlope (RS4; 11 cells; without Cpd. C): −1.839 | LogIC50 (RS4; 11 cells; without Cpd. C): −2.312 | shift of the dose response curves (RS4; 11 cells; co-treatment of Cpd. C (10, 20, or 30 μM)): Significant rightward shifts | protein level of MDM2 (MDM2 degradation) (MDM2 [1]; MV-4-11 cells, 2 hours, compared to Cpd. A): induce MDM2 degradation; also recorded: significantly decreased | protein level of MDM2 (MDM2 degradation) (MDM2 [2]; 11 cells, 2 hours, compared to Cpd. A): induce MDM2 degradation; also recorded: significantly decreased | HiliSlope [5]: −0.8905 | LogIC50 [5]: −0.9565 | HiliSlope [6]: −1.626 | LogIC50 [6]: −2.127 | mRNA levels of p21 ([7]; FIG. 3): activate | mRNA levels of PUMA ([7]; FIG. 4): activate | mRNA levels of BAX ([7]; FIG. 5): activate | activation of p53 downstream target genes (mRNA levels of p21, PUMA, BAX) ([7]; 3, 6, or 12 hours): Significant activation
